Patent publication EP4813979A1, “COMPOUND FOR EGFR PROTEIN DEGRADATION AND USE THEREOF” (TYK Medicines, Inc., priority 2023, dated 2025)

system: H1975; test: Cell anti-proliferation experiment (CTG); type: cell-based; conditions: Homo sapiens, NCI-H1975, 72 h, H1975 (EGFR T790M/L858R), class symbol
From the text: (§1) H1975 has an EGFR: T790M/L858R double mutation, PC-9 has an EGFR exon 19 deletion, and HCC827 has an exon 19 deletion mutation. Baf3-19del- T790M -C797S (Baf3-DTC) is a stable Ba/F3 clone expressing exogenous EGFR gene bearing T790M, C797S, and […] triple amino acid mutations, purchased from KYinno. Baf3-L858R-T790M - C797S (Baf3-LTC) is a stable Ba/F3 clone expressing exogenous EGFR gene bearing […], T790M, and C797S triple mutations, purchased from KYinno. A549 is a wild-type EGFR, purchased from Nanjing Kebai Biotechnology. A431 is a wild-type EGFR, purchased from Shanghai Xinyu Biotechnology. CellCounting-Lite2.0, Trypsin EDTA, 37°C CO2 incubator, cell counter, EnVision Serial No. 1050454.
(§2) • A) Digested logarithmic phase cells with Trypsin EDTA, added culture medium to stop the reaction, and mixing well with a pipette to prepare a cell suspension. • B) Used Vi-cell to determine cell concentration, and prepared a suspension of 15,000-25,000 cells per milliliter according to the experimental purpose and cell characteristics. • C) After prepared the cell suspension, mixed it gently and added 100 µL to each well, so that the cell density to be tested is 1500-2500 per well.
(§3) • A) Weighed approximately 2 mg the compound and calculated the required volume of DMSO according to the formula: Compound mass (mg) * Compound purity (%) / Compound molecular weight * 1000. • B) Placed the inoculated cell culture plate into an incubator and incubated for about 24 hours. Then added compounds of varying concentrations. • C) Diluted the 10mM compound stock solution to […] with culture medium, and added the […] compound solution to the second column of the deep well plate in sequence, and added […] culture medium containing 0.5% DMSO to the third to eleventh columns. • D) Gradient dilution: Taked 125 µL solution from the second column and added it to the third column, mix well; then taked 125 µL solution from the third column and added it to the fourth column, repeated this operation until the tenth column. • E) Used a multichannel pipette, aspirated 25 µL the compound from the deep-well plate and added it to a 96-well culture plate. Repeated this process three times for each compound on the 96-well plate. This will ultimately create a concentration gradient of up to 10,000 nM at a 1:4 ratio on the 96-well plate.
(§4) • A) The effects of the compound were observed under an inverted microscope after the 96-well plate was incubated in an incubator for 72 hours. • B) Added 25 µL CTG solution to each well, placed on a shaker for 10 minutes, and read the […] of each well.
(§5) Calculate the % Cell Viability using the following formula: %Cell Viability = 100% × (Lum_Sample−Lum_LC)/(Lum_HC−Lum_LC) [formula] • Lum_HC: Cell readings from the 0.1% DMSO control group • Lum_Sample: Cell readings with added compound • Lum_LC: Blank culture medium reading
(§6) The IC50 value was obtained by curve fitting using GraphPad Prism 8 software.

Compound | IC50 [nM]
CCc1cc(Nc2ncc(Cl)c(Nc3ccccc3P(C)(C)=O)n2)c(OC)cc1N1CCN(C(=O)CN2CCC(c3ccc4c(N5CCC(=O)NC5=O)nn(C)c4c3)C(F)(F)C2)CC1 (centres unmarked) [TC-215] | 100 to 1000

same assay, conditions: Homo sapiens, NCI-H1975, 72 h, H1975 (EGFR T790M/L858R), number after the class symbol

Compound | IC50 [nM]
CCc1cc(Nc2ncc(Cl)c(Nc3ccccc3P(C)(C)=O)n2)c(OC)cc1N1CCN(C(=O)CN2CCC(c3ccc4c(N5CCC(=O)NC5=O)nn(C)c4c3)C(F)(F)C2)CC1 (centres unmarked) [TC-215] | 164

system: PC-9; test: Cell anti-proliferation experiment (CTG); type: cell-based; conditions: Homo sapiens, PC-9, 72 h, PC-9 (EGFR exon 19 deletion), class symbol
From the text: as §1, §2, §3, §4, §5, §6

Compound | IC50 [nM]
CCc1cc(Nc2ncc(Cl)c(Nc3ccccc3P(C)(C)=O)n2)c(OC)cc1N1CCN(C(=O)CN2CCC(c3ccc4c(N5CCC(=O)NC5=O)nn(C)c4c3)C(F)(F)C2)CC1 (centres unmarked) [TC-215] | 100 to 1000

same assay, conditions: Homo sapiens, PC-9, 72 h, PC-9 (EGFR exon 19 deletion), number after the class symbol

Compound | IC50 [nM]
CCc1cc(Nc2ncc(Cl)c(Nc3ccccc3P(C)(C)=O)n2)c(OC)cc1N1CCN(C(=O)CN2CCC(c3ccc4c(N5CCC(=O)NC5=O)nn(C)c4c3)C(F)(F)C2)CC1 (centres unmarked) [TC-215] | 647

system: A549; test: Cell anti-proliferation experiment (CTG); type: cell-based; conditions: Homo sapiens, A549, 72 h, A549 (wild-type EGFR), class symbol
From the text: as §1, §2, §3, §4, §5, §6

Compound | IC50 [nM]
CCc1cc(Nc2ncc(Cl)c(Nc3ccccc3P(C)(C)=O)n2)c(OC)cc1N1CCN(C(=O)CN2CCC(c3ccc4c(N5CCC(=O)NC5=O)nn(C)c4c3)C(F)(F)C2)CC1 (centres unmarked) [TC-215] | 100 to 1000

same assay, conditions: Homo sapiens, A549, 72 h, A549 (wild-type EGFR), number after the class symbol

Compound | IC50 [nM]
CCc1cc(Nc2ncc(Cl)c(Nc3ccccc3P(C)(C)=O)n2)c(OC)cc1N1CCN(C(=O)CN2CCC(c3ccc4c(N5CCC(=O)NC5=O)nn(C)c4c3)C(F)(F)C2)CC1 (centres unmarked) [TC-215] | 326

system: Baf3-L858R-T790M - C797S (Baf3-LTC); test: Cell anti-proliferation experiment (CTG); type: cell-based; conditions: 72 h, class symbol
From the text: as §1, §2, §3, §4, §5, §6

Compound | IC50 [nM]
CCc1cc(Nc2ncc(Cl)c(Nc3ccccc3P(C)(C)=O)n2)c(OC)cc1N1CCN(C(=O)CN2CCC(c3ccc4c(N5CCC(=O)NC5=O)nn(C)c4c3)C(F)(F)C2)CC1 (centres unmarked) [TC-215] | < 10

same assay, conditions: 72 h, number after the class symbol

Compound | IC50 [nM]
CCc1cc(Nc2ncc(Cl)c(Nc3ccccc3P(C)(C)=O)n2)c(OC)cc1N1CCN(C(=O)CN2CCC(c3ccc4c(N5CCC(=O)NC5=O)nn(C)c4c3)C(F)(F)C2)CC1 (centres unmarked) [TC-215] | 5.3

system: Baf3-19del- T790M -C797S (Baf3-DTC); test: Cell anti-proliferation experiment (CTG); type: cell-based; conditions: 72 h, class symbol
From the text: as §1, §2, §3, §4, §5, §6

Compound | IC50 [nM]
CCc1cc(Nc2ncc(Cl)c(Nc3ccccc3P(C)(C)=O)n2)c(OC)cc1N1CCN(C(=O)CN2CCC(c3ccc4c(N5CCC(=O)NC5=O)nn(C)c4c3)C(F)(F)C2)CC1 (centres unmarked) [TC-215] | < 10

same assay, conditions: 72 h, number after the class symbol

Compound | IC50 [nM]
CCc1cc(Nc2ncc(Cl)c(Nc3ccccc3P(C)(C)=O)n2)c(OC)cc1N1CCN(C(=O)CN2CCC(c3ccc4c(N5CCC(=O)NC5=O)nn(C)c4c3)C(F)(F)C2)CC1 (centres unmarked) [TC-215] | 5.6

system: A431; test: Cell anti-proliferation experiment (CTG); type: cell-based; conditions: Homo sapiens, A-431, 72 h, A431 (wild-type EGFR), class symbol
From the text: as §1, §2, §3, §4, §5, §6

Compound | IC50 [nM]
CCc1cc(Nc2ncc(Cl)c(Nc3ccccc3P(C)(C)=O)n2)c(OC)cc1N1CCN(C(=O)CN2CCC(c3ccc4c(N5CCC(=O)NC5=O)nn(C)c4c3)C(F)(F)C2)CC1 (centres unmarked) [TC-215] | > 1000

same assay, conditions: Homo sapiens, A-431, 72 h, A431 (wild-type EGFR), number after the class symbol

Compound | IC50 [nM]
CCc1cc(Nc2ncc(Cl)c(Nc3ccccc3P(C)(C)=O)n2)c(OC)cc1N1CCN(C(=O)CN2CCC(c3ccc4c(N5CCC(=O)NC5=O)nn(C)c4c3)C(F)(F)C2)CC1 (centres unmarked) [TC-215] | 1070

system: HCC827; test: Cell anti-proliferation experiment (CTG); type: cell-based; conditions: Homo sapiens, HCC827, 72 h, HCC827 (exon 19 deletion), class symbol
From the text: as §1, §2, §3, §4, §5, §6

Compound | IC50 [nM]
CCc1cc(Nc2ncc(Cl)c(Nc3ccccc3P(C)(C)=O)n2)c(OC)cc1N1CCN(C(=O)CN2CCC(c3ccc4c(N5CCC(=O)NC5=O)nn(C)c4c3)C(F)(F)C2)CC1 (centres unmarked) [TC-215] | 100 to 1000

same assay, conditions: Homo sapiens, HCC827, 72 h, HCC827 (exon 19 deletion), number after the class symbol

Compound | IC50 [nM]
CCc1cc(Nc2ncc(Cl)c(Nc3ccccc3P(C)(C)=O)n2)c(OC)cc1N1CCN(C(=O)CN2CCC(c3ccc4c(N5CCC(=O)NC5=O)nn(C)c4c3)C(F)(F)C2)CC1 (centres unmarked) [TC-215] | 227
